Reference: article PMC10611828 (European Journal of Nuclear Medicine and Molecular Imaging, 2023)
Read-outs that look alike come from different tables or passages of the source.

What was measured:
[1] = In vivo biodistribution and clearance in PC-3 tumor-bearing mice; conditions: male, NMRI-Foxn1 nu/nu, mouse, iv, total radioactivity, i.v.; for tissue uptake at 1 h: 1 h p.i.; for tissue uptake at 4 h: 4 h p.i.; for tissue uptake at 24 h: 24 h p.i.; for tissue uptake at 48 h: 48 h p.i.; for tissue uptake at 72 h: 72 h p.i.
Experimental: All animal experiments were approved by the Animal Welfare Committee of the Erasmus MC, and all experiments were conducted in accordance to institutional guidelines.
At 1, 4, 24, 48, and 72 h post-injection (p.i.), animals were sedated using 2.5% isoflurane in oxygen, and blood was collected via the orbital vein, after which the animals were euthanized using cervical dislocation. Subsequently, the following organs were collected; the tail, tumor, spleen, liver, pancreas, small intestine, colon, coecum, kidneys, lung, and muscle. […] The collected tumor and organs were weighed, and the radioactivity was measured in the gamma counter. The biodistribution data are expressed as percentage injected dose per gram of tissue (% ID/g). Animal numbers per group are indicated in Supplementary Table 1 and 2.
Statistical analysis was performed using Graphpad Prism version 9.0.0. Outliers were identified using the ROUT method with a Q value of 1%. IC50 curves were determined using non-linear regression.

[2] = Stability in human serum at 37 °C (radio-HPLC); format: in vitro ADME
Experimental: (§1) The ^177Lu-labeled peptides were incubated in 300-μL phosphate buffered saline (PBS; Gibco, ThermoFisher, The Netherlands) at 37 °C, and their stability was verified after 1, 4, 24, 48, and 72 h by radio-HPLC (Supplementary Fig. 2). The stability in serum was determined by incubating the radiolabeled compounds into 300 μL of mouse serum (Invitrogen, USA) or human serum (Sigma Aldrich, USA) at 37 °C (Supplementary Fig. 3, 4). At each time point post-incubation, 35 μL of the mixture was added to an Eppendorf tube, and the proteins were precipitated by adding an equal volume of acetonitrile. The tubes were centrifuged at 16,000 rpm, 4 °C for 20 min, and the stability was monitored by radio-HPLC, expressed as the RCP at the different time points.

[3] = Stability in mouse serum at 37 °C (radio-HPLC); format: in vitro ADME
Experimental: as §1

[4] = design: method as in PMID 35951084; conditions: cited from earlier work
[5] = PC-3 tumor, read-out: % uptake PC-3 tumor
[6] = blood, read-out: % uptake blood
[7] = gastrointestinal tract, read-out: % uptake gastrointestinal tract
[8] = kidney, read-out: % uptake kidney
[9] = liver, read-out: % uptake liver
[10] = muscle, read-out: % uptake muscle
[11] = pancreas, read-out: % uptake pancreas
[12] = prostate, read-out: % uptake prostate
[13] = spleen, read-out: % uptake spleen
[14] = 1 h, read-out: intact radiolabeled ligand (RCP)
[15] = 4 h, read-out: intact radiolabeled ligand (RCP)
[16] = 24 h, read-out: intact radiolabeled ligand (RCP)
[17] = 48 h, read-out: intact radiolabeled ligand (RCP)
[18] = 72 h, read-out: intact radiolabeled ligand (RCP)

CC(C)CC(CC(C)C)NC(=O)[C@H](Cc1cnc[nH]1)NC(=O)CNC(=O)[C@@H](NC(=O)[C@H](C)NC(=O)[C@H](Cc1c[nH]c2ccccc12)NC(=O)[C@H](CCC(N)=O)NC(=O)[C@@H](Cc1ccccc1)NC(=O)COCC(=O)Nc1ccc(CNC(=O)CN2CCN(CC(=O)O)CCN(CC(=O)O)CCN(CC(=O)O)CC2)cc1)C(C)C [[^177Lu]Lu-NeoB, metal not drawn]
tissue uptake at 1 h [1, 5]: 9.38 ± 0.81 %ID/g | tissue uptake at 4 h [1, 5]: 9.98 ± 2.64 %ID/g | tissue uptake at 24 h [1, 5]: 8.05 %ID/g | tissue uptake at 48 h [1, 5]: 4.77 %ID/g | tissue uptake at 72 h [1, 5]: 2.88 %ID/g | tissue uptake at 1 h [1, 6]: 1.15 %ID/g | tissue uptake at 4 h [1, 6]: 0.11 %ID/g | tissue uptake at 24 h [1, 6]: 0.01 %ID/g | tissue uptake at 48 h [1, 6]: 0.01 %ID/g | tissue uptake at 1 h [1, 7]: 3.08 %ID/g | tissue uptake at 4 h [1, 7]: 1.91 %ID/g | tissue uptake at 24 h [1, 7]: 0.09 %ID/g | tissue uptake at 48 h [1, 7]: 0.26 %ID/g | tissue uptake at 72 h [1, 7]: 0.15 %ID/g | tissue uptake at 1 h [1, 8]: 2.68 %ID/g | tissue uptake at 4 h [1, 8]: 0.86 %ID/g | tissue uptake at 24 h [1, 8]: 0.1 %ID/g | tissue uptake at 48 h [1, 8]: 0.06 %ID/g | tissue uptake at 72 h [1, 8]: 0.04 %ID/g | tissue uptake at 1 h [1, 9]: 3.35 %ID/g | tissue uptake at 4 h [1, 9]: 0.54 %ID/g | tissue uptake at 24 h [1, 9]: 0.12 %ID/g | tissue uptake at 48 h [1, 9]: 0.08 %ID/g | tissue uptake at 72 h [1, 9]: 0.06 %ID/g | tissue uptake at 1 h ([1]; lung, read-out: % uptake lungs): 0.69 %ID/g | tissue uptake at 4 h ([1]; lung, read-out: % uptake lungs): 0.09 %ID/g | tissue uptake at 24 h ([1]; lung, read-out: % uptake lungs): 0.02 %ID/g | tissue uptake at 48 h ([1]; lung, read-out: % uptake lungs): 0.01 %ID/g | tissue uptake at 72 h ([1]; lung, read-out: % uptake lungs): 0.01 %ID/g | tissue uptake at 1 h [1, 10]: 0.13 %ID/g | tissue uptake at 4 h [1, 10]: 0.05 %ID/g | tissue uptake at 1 h [1, 11]: 30.7 ± 4.29 %ID/g | tissue uptake at 4 h [1, 11]: 21.4 ± 3.05 %ID/g | tissue uptake at 24 h [1, 11]: 4.14 %ID/g | tissue uptake at 48 h [1, 11]: 0.83 %ID/g | tissue uptake at 72 h [1, 11]: 0.35 %ID/g | tissue uptake at 1 h [1, 12]: 0.7 %ID/g | tissue uptake at 4 h [1, 12]: 0.08 %ID/g | tissue uptake at 24 h [1, 12]: 0.02 %ID/g | tissue uptake at 48 h [1, 12]: 0.01 %ID/g | tissue uptake at 72 h [1, 12]: 0.01 %ID/g | tissue uptake at 1 h [1, 13]: 0.43 %ID/g | tissue uptake at 4 h [1, 13]: 0.15 %ID/g | tissue uptake at 24 h [1, 13]: 0.04 %ID/g | tissue uptake at 48 h [1, 13]: 0.02 %ID/g | tissue uptake at 72 h [1, 13]: 0.01 %ID/g | intact radiolabeled ligand (RCP) ([2]; 0 h): 97.1 ± 0.3% | remaining at 1 h [2, 14]: 97.9 ± 0.2% | remaining at 4 h [2, 15]: 97.8 ± 0.3% | remaining at 24 h [2, 16]: 89.2 ± 0.5% | remaining at 48 h [2, 17]: 81 ± 0.7% | remaining at 72 h [2, 18]: 75.6 ± 1.7% | intact radiolabeled ligand (RCP) ([3]; 0 h): 97.1 ± 0.3% | remaining at 1 h [3, 14]: 94.3 ± 0.7% | remaining at 4 h [3, 15]: 84.1 ± 1.1% | remaining at 24 h [3, 16]: 27.9 ± 2.3% | remaining at 48 h [3, 17]: 14.2 ± 1% | remaining at 72 h [3, 18]: 4.4 ± 1.2% | tolerability ([4]; after repeated radiotracer administration): well tolerated | hematological effects after treatment [4]: no lasting hematological effects
